Experiments:
[1] = system: neonatal murine calvaria; details: L-arginine alone, 20 μM
Procedure: Selected compounds and appropriate controls were assayed in vitro (ex vivo) for bone formation activity (described above in “In Vitro Neonatal Mouse Calvaria Assay”). Histomorphometrical assessments of ex vivo calvaria were carried out using an OsteoMetrics bone morphometry measurement program, according to the manufacturer's instructions. Measurements were determined using either a 10- or 20-fold objective with a standard point counting eyepiece graticule.

[2] = system: bone resorption; details: lipid clearing agents; Wang et al. 1995; cited from earlier work
[3] = system: osteoprogenitor cells; details: cells treated with dexamethasone in vitro; Cui et al. 1996; cited from earlier work
[4] = system: three month old S-D rats; assay: Bone mineral density in rats treated orally by gavage for 16 weeks; assay type: in vivo, rat; details: oral gavage, S-D rats (FIG. 4 lower panel)
Procedure: Statin equivalence: 100 mg/kg/day=0.72 mg/day; 400 mg/kg/day=2.9 mg/day; and 800 mg/kg/day=5.8 mg/day.
In this experiment, experimental groups of three month old S-D rats were used. Food was removed from the cages 6 hours prior to dosing. The animals were then treated orally by gavage once a day with vehicle (0.5% methylcellulose), lovastatin, or OsteoPure™ (lovastatin-containing reduced rice extract). OsteoPure™ was administered at 100, 400, or 800 mg/kg/day five days a week for 16 weeks. The statin equivalence in OsteoPure™ is 100 mg/kg/day=0.72 mg/day; 400 mg/kg/day=2.9 mg/day; and 800 mg/kg/day=5.8 mg/day. Rats were weighed weekly. Bone mineral density (BMD) were analyzed every four weeks. In the upper panel, the bone mineral densities (BMDs) are shown. In the lower panel, the % change in BMDs of the experimental over the 16 weeks is shown. […] This trend is confirmed in the long term analysis of percent change in BMDs shown in the lower panel.

[5] = system: bone mass; details: Horiuchi et al. 2001, Kinoshita et al. 2000; cited from earlier work
[6] = system: rats; details: injected locally into the subcutaneous tissues of rats; Wozney 1992; cited from earlier work

Q: With `N=C(N)NCCC[C@H](N)C(=O)O` [L-arginine] as the molecule, how does the bone formation [1] read?
A: induces bone formation

Q: Which “bone resorption induced by steroid administration” value [2] does the source give for `CC[C@H](C)C(=O)O[C@H]1C[C@@H](C)C=C2C=C[C@H](C)[C@H](CC[C@@H]3C[C@@H](O)CC(=O)O3)[C@H]21` [lovastatin] here?
A: inhibit bone resorption induced by steroid administration

Q: What about the “triglyceride vesicles in osteoprogenitor cells” value [3] of the same molecule?
A: diminished triglyceride vesicles

Q: What about the “percent change in BMDs over 16 weeks, co-administered with L-arginine relative to the agent alone” value [4] of the same molecule?
A: greater increase in BMDs

Q: For `CC(=O)CCCCn1c(=O)c2c(ncn2C)n(C)c1=O` [pentoxifylline], which bone mass [5] is on record?
A: increase bone mass by promoting bone formation

Q: With `COc1ccc(C2CNC(=O)C2)cc1OC1CCCC1` (stereo not shown) [rolipram] as the molecule, how does the bone mass [5] read?
A: increase bone mass by promoting bone formation

B1: BMP-4: recombinant bone morphogenic protein (protein, UniProt P12644 293-408, looked up)
Bone morphogenetic protein 4: SPKHHSQRARKKNKNCRRHSLYVDFSDVGWNDWIVAPPGYQAFYCHGDCPFPLADHLNSTNHAIVQTLVNSVNSSIPKACCVPTELSAISMLYLDEYDKVVLKNYQEMVVEGCGCR
Q: For B1, which new bone formation [6] is on record?
A: can induce new bone formation
